Reference: patent publication US11214594B2, “Antimicrobial peptide having synergistic antibacterial effect with antibiotics on multidrug resistant bacteria, and use thereof” (priority 2016, dated 2022)
Converted amounts (≈) assume the structure as drawn. Where a SMILES comes first, the peptide text is derived from it.

Tests used:
E. coli [1] = experiment: microbe, parasite or virus in culture; format: cell-based, Escherichia coli; settings: 16 h
Outline: (§1)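 Broth microdilution in MH medium: bacterial strains diluted to 2×10^6 CFU were mixed with equal volumes of peptide serially diluted twofold in MH medium.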

MDREC 1229 [2] = experiment: microbe, parasite or virus in culture; format: cell-based, Escherichia coli
Outline: as §1

MDREC 1238 = format: cell-based, Escherichia coli
Outline: as §1

P. aeruginosa = experiment: microbe, parasite or virus in culture; format: cell-based, Pseudomonas aeruginosa
Outline: as §1

MDRAB 12036 = format: cell-based, Acinetobacter baumannii
Outline: as §1

S. typhimurium = experiment: microbe, parasite or virus in culture; format: cell-based, Salmonella typhimurium
Outline: as §1

MDRST 8007 = experiment: Minimal inhibitory concentration (MIC), single agent; format: cell-based, Salmonella typhimurium; settings: agent alone
Procedure: (§2) For the antibacterial activity, a minimal inhibitory concentration (MIC) of a peptide in which fungus bodies were not split in an MH medium with sufficient nutrients was measured.
(§3) Specifically, the strains described in the following [Table 2] were purchased and diluted with an MH medium such that the number of bacteria was 2×10^6 colony-forming units (CFUs), 100 μl of each of the diluted strains was aliquoted into a 96-well microtiter plate, and then 100 μl of a peptide solution diluted with the MH medium (solution diluted stepwise at 2: 1) was added to each well.

MDRST 8009 = format: cell-based, Salmonella typhimurium; settings: agent alone
Procedure: as §2, §3

S. epidermidis = experiment: microbe, parasite or virus in culture; format: cell-based, Staphylococcus epidermidis
Outline: as §1

S. aureus = experiment: microbe, parasite or virus in culture; format: cell-based, Staphylococcus aureus
Outline: as §1

MRSA 3114 = format: cell-based, Staphylococcus aureus; settings: 3114
Outline: as §1

MRSA 3126 = format: cell-based, Staphylococcus aureus; settings: 3126
Outline: as §1

E. coli [3] = experiment: MIC of antibiotic during combined treatment with antimicrobial peptide; format: cell-based, Escherichia coli; settings: for Antibiotic MIC, Erythromycin / Antibiotic MIC, Linezolid / Antibiotic MIC, Vancomycin: E. coli
Outline: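 Antibiotic diluted in MH medium, dispensed per well with peptide; setup repeated with roles reversed; MIC read per combination.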

MDREC 1229 [4] = experiment: as above; format: cell-based, Escherichia coli
Procedure: Specifically, the strains described in [Table 2] were prepared and diluted with an MH medium such that the number of bacteria was 2×10^6 colony-forming units (CFUs) per 1 ml, 100 μl of the diluted strains was each aliquoted into a 96-well microtiter plate, and then 50 μl of a peptide solution diluted with the MH medium from the MIC value (solution diluted stepwise at 2: 1) was added to each well. Thereafter, the MIC value of each mixed solution was determined by diluting the antibiotic solution with the MH medium, adding 50 μl of the diluted solution to each well, and performing an experiment even under a reversed condition.

A. baumannii = experiment: MIC of antimicrobial peptide during combined treatment with antibiotic; format: cell-based, Acinetobacter baumannii
Outline: (§4)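 Antibiotic MIC came from antibiotic dilutions added to bacteria (2×10^6 CFU/ml, MH medium) already combined with peptide serially diluted 2:1 from its own MIC. Swapping the roles of the two agents gave the peptide MIC.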

MDRAB 12035 = experiment: as above; format: cell-based, Acinetobacter baumannii
Outline: as §4

[5] = peptide treatment concentration 1 μg/ml
[6] = peptide treatment concentration 2 μg/ml
[7] = peptide treatment concentration 4 μg/ml
[8] = peptide treatment concentration 6 μg/ml
[9] = peptide treatment concentration 8 μg/ml
[10] = peptide treatment concentration 16 μg/ml
[11] = peptide treatment concentration 32 μg/ml
[12] = peptide treatment concentration 64 μg/ml
[13] = erythromycin 4 μg/ml (Conc./MIC 1/8)
[14] = erythromycin 8 μg/ml (Conc./MIC 1/4)
[15] = erythromycin 16 μg/ml (Conc./MIC 1/2)
[16] = erythromycin 32 μg/ml (Conc./MIC 1)
[17] = vancomycin 512 μg/ml (Conc./MIC 1/2)
[18] = vancomycin 1024 μg/ml (Conc./MIC 1)

CC[C@H](C)[C@H](NC(=O)[C@H](CCCCN)NC(=O)[C@H](Cc1c[nH]c2ccccc12)NC(=O)[C@@H](N)CCCNC(=N)N)C(=O)N[C@@H](Cc1ccccc1)C(=O)N[C@@H](CCCCN)C(=O)N[C@@H](CCCCN)C(=O)N[C@H](C(=O)N1CCC[C@H]1C(=O)N[C@@H](CCCCN)C(=O)N[C@@H](CC(C)C)C(=O)N[C@@H](CC(C)C)C(=O)N[C@@H](Cc1c[nH]cn1)C(=O)N[C@@H](CCC(=O)O)C(=O)N[C@@H](C)C(=O)N[C@@H](CCCCN)C(=O)N[C@@H](CCCCN)C(=O)N[C@@H](Cc1c[nH]c2ccccc12)C(N)=O)[C@@H](C)CC [PapMA-13, RWK IFK KIP KLL HEA KKW-NH2] (H-RWKIFKKIPKLLHEAKKW-NH2; N-terminus assumed)
Minimal inhibitory concentration MIC (E. coli [1]): 16 µg/mL (≈ 6.81 µM) | Minimal inhibitory concentration MIC (MDREC 1229 [2]): 16 µg/mL (≈ 6.81 µM) | Peptide MIC, peptide alone (MDREC 1229 [2]): 16 µg/mL | Minimal inhibitory concentration MIC (MDREC 1238): 16 µg/mL (≈ 6.81 µM) | Minimal inhibitory concentration MIC (P. aeruginosa): 128 µg/mL (≈ 54.5 µM) | Minimal inhibitory concentration MIC (MDRAB 12036): 16 µg/mL (≈ 6.81 µM) | Minimal inhibitory concentration MIC (S. typhimurium): 16 µg/mL (≈ 6.81 µM) | Minimal inhibitory concentration MIC (MDRST 8007): 16 µg/mL (≈ 6.81 µM) | Minimal inhibitory concentration MIC (MDRST 8009): 16 µg/mL (≈ 6.81 µM) | Minimal inhibitory concentration MIC (S. epidermidis): >128 µg/mL | Minimal inhibitory concentration MIC (S. aureus): >128 µg/mL | Minimal inhibitory concentration MIC (MRSA 3114): >128 µg/mL | Minimal inhibitory concentration MIC (MRSA 3126): >128 µg/mL | Synergistic effect of antibacterial activity with existing antibiotics compared with PapMA-1 (E. coli [3]; E. coli and MDREC1229): higher level than the PapMA-1 peptide | Antibiotic MIC, Erythromycin (E. coli [3]; erythromycin combined with peptide at 1 μg/ml): 64 µg/mL | Antibiotic MIC, Erythromycin (E. coli [3]; erythromycin combined with peptide at 2 μg/ml): 16 µg/mL | Antibiotic MIC, Erythromycin (E. coli [3]; erythromycin combined with peptide at 4 μg/ml): 2 µg/mL | Antibiotic MIC, Erythromycin (E. coli [3]; erythromycin combined with peptide at 6 μg/ml): 1 µg/mL | Antibiotic MIC, Erythromycin (E. coli [3]; erythromycin combined with peptide at 8 μg/ml): 0.25 µg/mL | Antibiotic MIC, Erythromycin (E. coli [3]; erythromycin combined with peptide at 16 μg/ml): 0 µg/mL | Antibiotic MIC, Erythromycin (E. coli [3]; erythromycin combined with peptide at 32 μg/ml): 0 µg/mL | Antibiotic MIC, Erythromycin (E. coli [3]; erythromycin combined with peptide at 64 μg/ml): 0 µg/mL | Antibiotic MIC, Linezolid (E. coli [3]; linezolid combined with peptide at 1 μg/ml): >128 µg/mL | Antibiotic MIC, Linezolid (E. coli [3]; linezolid combined with peptide at 2 μg/ml): 64 µg/mL | Antibiotic MIC, Linezolid (E. coli [3]; linezolid combined with peptide at 4 μg/ml): 8 µg/mL | Antibiotic MIC, Linezolid (E. coli [3]; linezolid combined with peptide at 6 μg/ml): 4 µg/mL | Antibiotic MIC, Linezolid (E. coli [3]; linezolid combined with peptide at 8 μg/ml): 1 µg/mL | Antibiotic MIC, Linezolid (E. coli [3]; linezolid combined with peptide at 16 μg/ml): 0 µg/mL | Antibiotic MIC, Linezolid (E. coli [3]; linezolid combined with peptide at 32 μg/ml): 0 µg/mL | Antibiotic MIC, Linezolid (E. coli [3]; linezolid combined with peptide at 64 μg/ml): 0 µg/mL | Antibiotic MIC, Vancomycin (E. coli [3]; vancomycin combined with peptide at 1 μg/ml): >128 µg/mL | Antibiotic MIC, Vancomycin (E. coli [3]; vancomycin combined with peptide at 2 μg/ml): 64 µg/mL | Antibiotic MIC, Vancomycin (E. coli [3]; vancomycin combined with peptide at 4 μg/ml): 16 µg/mL | Antibiotic MIC, Vancomycin (E. coli [3]; vancomycin combined with peptide at 6 μg/ml): 8 µg/mL | Antibiotic MIC, Vancomycin (E. coli [3]; vancomycin combined with peptide at 8 μg/ml): 2 µg/mL | Antibiotic MIC, Vancomycin (E. coli [3]; vancomycin combined with peptide at 16 μg/ml): 0 µg/mL | Antibiotic MIC, Vancomycin (E. coli [3]; vancomycin combined with peptide at 32 μg/ml): 0 µg/mL | Antibiotic MIC, Vancomycin (E. coli [3]; vancomycin combined with peptide at 64 μg/ml): 0 µg/mL | Antibiotic MIC, Erythromycin (MDREC 1229 [4]; [5]): >128 µg/mL | Antibiotic MIC, Linezolid (MDREC 1229 [4]; [5]): >128 µg/mL | Antibiotic MIC, Vancomycin (MDREC 1229 [4]; [5]): >128 µg/mL | Antibiotic MIC, Erythromycin (MDREC 1229 [4]; [6]): 32 µg/mL | Antibiotic MIC, Linezolid (MDREC 1229 [4]; [6]): 128 µg/mL | Antibiotic MIC, Vancomycin (MDREC 1229 [4]; [6]): >128 µg/mL | Antibiotic MIC, Erythromycin (MDREC 1229 [4]; [7]): 8 µg/mL | Antibiotic MIC, Linezolid (MDREC 1229 [4]; [7]): 64 µg/mL | Antibiotic MIC, Vancomycin (MDREC 1229 [4]; [7]): 64 µg/mL | Antibiotic MIC, Erythromycin (MDREC 1229 [4]; [8]): 4 µg/mL | Antibiotic MIC, Linezolid (MDREC 1229 [4]; [8]): 8 µg/mL | Antibiotic MIC, Vancomycin (MDREC 1229 [4]; [8]): 16 µg/mL | Antibiotic MIC, Erythromycin (MDREC 1229 [4]; [9]): 0.5 µg/mL | Antibiotic MIC, Linezolid (MDREC 1229 [4]; [9]): 4 µg/mL | Antibiotic MIC, Vancomycin (MDREC 1229 [4]; [9]): 4 µg/mL | Antibiotic MIC, Erythromycin (MDREC 1229 [4]; [10]): 0 µg/mL | Antibiotic MIC, Linezolid (MDREC 1229 [4]; [10]): 0 µg/mL | Antibiotic MIC, Vancomycin (MDREC 1229 [4]; [10]): 0 µg/mL | Antibiotic MIC, Erythromycin (MDREC 1229 [4]; [11]): 0 µg/mL | Antibiotic MIC, Linezolid (MDREC 1229 [4]; [11]): 0 µg/mL | Antibiotic MIC, Vancomycin (MDREC 1229 [4]; [11]): 0 µg/mL | Antibiotic MIC, Erythromycin (MDREC 1229 [4]; [12]): 0 µg/mL | Antibiotic MIC, Linezolid (MDREC 1229 [4]; [12]): 0 µg/mL | Antibiotic MIC, Vancomycin (MDREC 1229 [4]; [12]): 0 µg/mL | Peptide MIC during treatment with antibiotic (A. baumannii; [13]): 4 µg/mL | Peptide MIC during treatment with antibiotic (A. baumannii; [14]): 2 µg/mL | Peptide MIC during treatment with antibiotic (A. baumannii; [15]): 1 µg/mL | Peptide MIC during treatment with antibiotic (A. baumannii; [16]): 0 µg/mL | Peptide MIC during treatment with antibiotic (A. baumannii; linezolid 32 μg/ml (Conc./MIC 1/8)): 2 µg/mL | Peptide MIC during treatment with antibiotic (A. baumannii; linezolid 64 μg/ml (Conc./MIC 1/4)): 2 µg/mL | Peptide MIC during treatment with antibiotic (A. baumannii; linezolid […] (Conc./MIC 1)): 0 µg/mL | Peptide MIC during treatment with antibiotic (A. baumannii; linezolid […] (Conc./MIC 1/2)): 1 µg/mL | Peptide MIC during treatment with antibiotic (A. baumannii; [17]): 0.25 µg/mL | Peptide MIC during treatment with antibiotic (A. baumannii; [18]): 0 µg/mL | Peptide MIC during treatment with antibiotic (A. baumannii; vancomycin […] (Conc./MIC 1/4)): 0.25 µg/mL | Peptide MIC during treatment with antibiotic (A. baumannii; vancomycin […] (Conc./MIC 1/8)): 1 µg/mL | Peptide MIC during treatment with erythromycin (MDRAB 12035; [13]): 4 µg/mL | Peptide MIC during treatment with erythromycin (MDRAB 12035; [14]): 2 µg/mL | Peptide MIC during treatment with erythromycin (MDRAB 12035; [15]): 1 µg/mL | Peptide MIC during treatment with erythromycin (MDRAB 12035; [16]): 0 µg/mL | Peptide MIC during treatment with linezolid (MDRAB 12035; linezolid 64 μg/ml (Conc./MIC 1/8)): 2 µg/mL | Peptide MIC during treatment with linezolid (MDRAB 12035; linezolid 512 μg/ml (Conc./MIC 1)): 0 µg/mL | Peptide MIC during treatment with linezolid (MDRAB 12035; linezolid […] (Conc./MIC 1/2)): 1 µg/mL | Peptide MIC during treatment with linezolid (MDRAB 12035; linezolid […] (Conc./MIC 1/4)): 1 µg/mL | Peptide MIC during treatment with vancomycin (MDRAB 12035; [17]): 1 µg/mL | Peptide MIC during treatment with vancomycin (MDRAB 12035; [18]): 1 µg/mL | Peptide MIC during treatment with vancomycin (MDRAB 12035; vancomycin […] (Conc./MIC 1/4)): 1 µg/mL | Peptide MIC during treatment with vancomycin (MDRAB 12035; vancomycin […] (Conc./MIC 1/8)): 2 µg/mL
